Assays:
Type in all cases: toxicity, cell-based
[1] = test system: HEK-293T; test: Incucyte cell viability with HEK293T; settings: human, 10 µM, compound concentration 10 uM
[2] = test system: Fibroblast; test: Incucyte cell viability with human fibroblast; settings: 10 µM, compound concentration 10 uM
[3] = test system: U2OS; test: Incucyte cell viability with U2OS; settings: human, 10 µM, compound concentration 10 uM
Also: unitless GR value; below 1 slowed growth and below 0 cell loss.

| Structure (SMILES) | Growth Rate ([1]; 6 h, replicate number 1) | Growth Rate ([1]; 6 h, replicate number 2) | Growth Rate ([1]; 12 h, replicate number 1) | Growth Rate ([1]; 12 h, replicate number 2) | Growth Rate ([1]; 18 h, replicate number 2) | Growth Rate ([1]; 24 h, replicate number 2) | Growth Rate ([2]; 12 h, replicate number 1) | Growth Rate ([2]; 12 h, replicate number 2) | Growth Rate ([2]; 18 h, replicate number 1) | Growth Rate ([3]; 0 h, replicate number 1) | Growth Rate ([3]; 0 h, replicate number 2) | Growth Rate ([3]; 6 h, replicate number 1) | Growth Rate ([3]; 6 h, replicate number 2) | Growth Rate ([3]; 12 h, replicate number 2) | Growth Rate ([3]; 18 h, replicate number 1) | Growth Rate ([3]; 18 h, replicate number 2) | Growth Rate ([3]; 24 h, replicate number 1) | Growth Rate ([3]; 24 h, replicate number 2) | Growth Rate ([2]; 24 h, replicate number 2) | Growth Rate ([3]; 12 h, replicate number 1) | further results |
| --- | --- | --- | --- | --- | --- | --- | --- | --- | --- | --- | --- | --- | --- | --- | --- | --- | --- | --- | --- | --- | --- |
| CNC1(C)C2CCC(C2)C1(C)C.Cl (configuration not stated) [MECAMYLAMINE HYDROCHLORIDE] | 0.95 | 0.89 | 0.74 | 0.84 | 0.89 | 0.91 | -1 | 0.66 | 0.43 | 0.92 | -0.76 | 1 | 0.24 | 0.97 | 0.93 | 0.64 | 0.98 | 0.73 |  |  | Growth Rate ([2]; 0 h, replicate number 1): 0.75; Growth Rate ([2]; 0 h, replicate number 2): 0.92; Growth Rate ([2]; 6 h, replicate number 1): 0.44 |
| CCCCC(C)(O)C/C=C/[C@H]1[C@H](O)CC(=O)[C@@H]1CCCCCCC(=O)O (some centres not stated) [MISOPROSTOL ACID] |  |  |  |  |  |  | 0.98 |  | 0.86 |  | 0.49 |  |  | 0.94 |  |  |  |  | 0.97 |  | Growth Rate ([1]; 0 h, replicate number 1): -0.42; Growth Rate ([1]; 0 h, replicate number 2): -0.77; Growth Rate ([2]; 0 h, replicate number 1): -1; Growth Rate ([2]; 0 h, replicate number 2): -0.92 |
| O=C(O)[C@]1(Cc2cccc(Nc3nccs3)n2)CC[C@@H](Oc2cccc(Cl)c2F)CC1 [MK-5108] | 0.9 | 0.73 | 0.39 | 0.16 | 0.35 | 0.61 | 0.18 | 0.85 | 0.17 |  |  | 0.98 | 0.59 | 0.14 | 0.21 | 0.25 | 0.37 | 0.47 | 0.2 | 0.56 | Growth Rate ([1]; 0 h, replicate number 1): 0.43; Growth Rate ([1]; 18 h, replicate number 1): 0.47; Growth Rate ([1]; 24 h, replicate number 1): 0.63; Growth Rate ([2]; 0 h, replicate number 2): -1; Growth Rate ([2]; 18 h, replicate number 2): 0.26; Growth Rate ([2]; 24 h, replicate number 1): 0.32 |
| Cn1cc(-c2cnc3ccc4ccc(CS(=O)(=O)NCc5ccccn5)cc4c(=O)c3c2)cn1 [MK-8033] | 0.24 | 0 | 0.39 | 0.34 | 0.63 | 0.78 |  |  |  |  | 0.2 | 0.9 | 0.76 | 0.75 | 0.88 |  | 0.81 |  |  |  | Growth Rate ([1]; 18 h, replicate number 1): 0.56; Growth Rate ([1]; 24 h, replicate number 1): 0.71; Growth Rate ([2]; 0 h, replicate number 1): -1; Growth Rate ([2]; 6 h, replicate number 1): 0.98; Growth Rate ([2]; 6 h, replicate number 2): -0.01 |
| COc1cc(C(=O)O)ncc1C#Cc1ccccc1NS(=O)(=O)c1cccc2c(N(C)C)ccnc12 [MSC-0516] |  |  |  |  |  |  |  | 0.77 |  |  | 0.61 | 0.68 | 0.86 | 0.75 | 0.8 | 0.91 | 0.89 | 0.9 | 0.93 | 0.92 | Growth Rate ([1]; 0 h, replicate number 1): -0.31; Growth Rate ([1]; 0 h, replicate number 2): -0.98; Growth Rate ([2]; 0 h, replicate number 1): -1; Growth Rate ([2]; 6 h, replicate number 2): 0.44; Growth Rate ([2]; 18 h, replicate number 2): 0.99 |
| COc1ccc(OC(=O)N(CC(=O)O)Cc2ccc(OCCc3nc(-c4ccccc4)oc3C)cc2)cc1 [MURAGLITAZAR] | 0.89 | 0.07 | 0.94 | 0.42 | 0.51 | 0.5 | 0.76 | 0.56 | 0.79 | -0.96 | 0.98 |  | 0.71 | 0.94 |  |  |  | 0.87 | 0.97 |  | Growth Rate ([1]; 0 h, replicate number 2): -1; Growth Rate ([2]; 6 h, replicate number 1): 0.85; Growth Rate ([2]; 6 h, replicate number 2): 0.43; Growth Rate ([2]; 18 h, replicate number 2): 0.72 |
| CC(C)N1CCN(Cc2cnc(-c3cc(-c4cccc5[nH]ccc45)cc4[nH]ncc34)o2)CC1 [NEMIRALISIB] | -0.37 | -0.48 | -0.09 | -0.01 | 0.15 | 0.32 | 0.04 | 0.83 | 0.27 | -0.99 | 0.94 |  | 0.36 | 0.64 |  | 0.64 |  | 0.6 | 0.85 | 0.83 | Growth Rate ([1]; 18 h, replicate number 1): 0.26; Growth Rate ([1]; 24 h, replicate number 1): 0.34; Growth Rate ([2]; 6 h, replicate number 1): -0.06; Growth Rate ([2]; 18 h, replicate number 2): 0.75; Growth Rate ([2]; 24 h, replicate number 1): 0.3 |
| FC(F)(F)c1ccc(Nc2ncnc3cc(-c4ncccc4C(F)(F)F)ccc23)cc1 [NGD-8243] |  |  |  | 0.89 | 0.92 | 0.88 | -1 | -0.24 |  |  |  |  | 0.82 | 0.71 | 0.96 | 0.8 | 1 | 0.88 | 0.37 | 0.94 | Growth Rate ([2]; 6 h, replicate number 1): 0.97; Growth Rate ([2]; 6 h, replicate number 2): -1; Growth Rate ([2]; 18 h, replicate number 2): 0.27 |
| CN1CCC[C@H]1c1cccnc1 [NICOTINE] | 0.4 | 0.38 | 0.64 | 0.75 | 0.76 | 0.85 |  |  |  | -0.33 | -1 | 0.16 | 0.24 | 0.66 |  | 0.77 |  | 0.86 |  |  | Growth Rate ([1]; 0 h, replicate number 1): 0.69; Growth Rate ([1]; 18 h, replicate number 1): 0.99; Growth Rate ([1]; 24 h, replicate number 1): 0.93; Growth Rate ([2]; 0 h, replicate number 2): -0.9; Growth Rate ([2]; 6 h, replicate number 2): -0.93 |
| COC(=O)c1ccc2c(c1)NC(=O)/C2=C(\Nc1ccc(N(C)C(=O)CN2CCN(C)CC2)cc1)c1ccccc1 [NINTEDANIB] | -0.42 |  | 0.57 |  |  |  |  |  |  | 0.64 | 0.08 | -0.05 |  |  | 0.97 |  |  | 0.99 |  |  | Growth Rate ([2]; 0 h, replicate number 1): 0.43; Growth Rate ([2]; 0 h, replicate number 2): -0.14; Growth Rate ([2]; 24 h, replicate number 1): 0.4 |
| CCOC(=O)C1=C(C)NC(C)=C(C(=O)OC)C1c1cccc([N+](=O)[O-])c1 (configuration not stated) [NITRENDIPINE] | 0.11 | -0.36 |  | 0.63 | 0.99 | 0.95 |  |  | -0.02 | 0.22 | -0.99 | 0.47 | 0.51 | 0.71 |  | 0.86 | 0.91 | 0.9 | 0.95 | 0.89 | Growth Rate ([2]; 0 h, replicate number 1): -0.46; Growth Rate ([2]; 0 h, replicate number 2): -0.98 |
| CC(C)(O)[C@H]1CC[C@H](Nc2ccc3ncc(-c4cccc(C(F)(F)F)c4)n3n2)CC1 [NUVISERTIB] | -0.61 | -0.3 | -0.5 | -0.3 | -0.12 | -0.02 | -0.53 | -0.72 | -0.46 | -0.52 |  | 0.88 | 0.42 | 0.24 | 0.38 | 0.15 | 0.32 | 0.08 | -0.47 | 0.46 | Growth Rate ([1]; 0 h, replicate number 2): -0.24; Growth Rate ([1]; 18 h, replicate number 1): -0.39; Growth Rate ([1]; 24 h, replicate number 1): -0.27; Growth Rate ([2]; 6 h, replicate number 1): -0.74; Growth Rate ([2]; 6 h, replicate number 2): -0.83; Growth Rate ([2]; 18 h, replicate number 2): -0.6; Growth Rate ([2]; 24 h, replicate number 1): -0.39 |
| CC[C@H]1[C@@H](O)[C@@H]2[C@H](CC[C@]3(C)[C@@H]([C@H](C)CCC(=O)O)CC[C@@H]23)[C@@]2(C)CC[C@@H](O)C[C@@H]12 [OBETICHOLIC ACID] |  | 0.83 |  | 0.96 |  |  | 0.91 | 0.62 | 0.82 |  |  | -0.88 |  |  |  |  |  |  | 0.95 | 0.87 | Growth Rate ([1]; 0 h, replicate number 1): 0.42; Growth Rate ([1]; 0 h, replicate number 2): -0.65; Growth Rate ([2]; 6 h, replicate number 1): 0.39; Growth Rate ([2]; 6 h, replicate number 2): 0.74; Growth Rate ([2]; 18 h, replicate number 2): 0.87; Growth Rate ([2]; 24 h, replicate number 1): 0.9 |
| Cl.NCC(O)c1ccc(O)cc1 (configuration not stated) [OCTOPAMINE HYDROCHLORIDE] | 0.45 | 0.94 |  |  |  |  |  | 0.8 | -0.19 | 0.94 | -0.87 | 0.64 | 0.65 | 0.92 | 0.83 | 0.87 | 0.97 | 0.95 |  | 0.99 | Growth Rate ([1]; 0 h, replicate number 1): 0.76; Growth Rate ([1]; 0 h, replicate number 2): 0.66; Growth Rate ([2]; 6 h, replicate number 2): -0.67 |
